From PMC9312238, “Novel Organoselenium Redox Modulators with Potential Anticancer, Antimicrobial, and Antioxidant Activities” (Antioxidants, 2022)

Experiments:
[1] = DPPH radical scavenging bioassay; format: biochemical; conditions: for radical scavenging activity, DPPH assay: compound 1 mM in MeOH, read after 0.5 h at 517 nm; for IC50: concentration decreasing absorbance by 50%
Description: (§1) The antioxidant activity was estimated by ABTS and DPPH bioassays, according to the reported literature method. More details are in the Supplementary Materials.
(§2) Recently, OSe compounds were thoroughly used as redox modulators to control many complicated diseases (e.g., cancer and neurodegenerative diseases). The DPPH and ABTS bioassays were extensively used as rapid tools for estimating the antioxidant potency of OSe compounds [50, 51]. Ascorbic acid was used as a standard control, and the antioxidant potency was measured by the ability of the compounds to decolorize the characteristic colors of the ABTS^. and DPPH^. radicals by following the colorimetric decline in absorbance at 734 and 517 nm, respectively (Figure 2).
Figure 2 Evaluation of the antioxidant properties of the OSe compounds employing the ABTS and DPPH assays. All measurements are mean ± SD. In the DPPH assay: absorbance was read after 0.5 h of mixing […] of DPPH with […] of OSe compounds (1 mM, MeOH) at 517 nm. In the ABTS assay: […] of each OSe compound (1 mM, phosphate-buffered methanol) was mixed with the ABTS solution (60 mM), and absorbance was monitored at 734 nm. […]
1.1.1. The antioxidant activity
The hydrogen atom or electron donation ability of the corresponding compounds was measured by estimating the bleaching of the purple color of a methanolic solution of DPPH [29]. This spectrophotometric assay uses stable DPPH. reagent. The sample was prepared by adding […] of the OSe compounds (1 mM in methanol) to […] DPPH in methanol. After 30 min of incubation in the dark, the absorbance was read against a blank at 517 nm. Ascorbic acid (vitamin C) and ebselen were used as standard antioxi-dants (positive control). A blank sample was run without DPPH. A negative control sam-ple was run using methanol instead of the sample. The radical scavenging activity was calculated using the following equation:
(§3) Inhibition%= (Ablank-Asample)/(Ablank)*100. (1)

[2] = ABTS radical scavenging bioassay; format: biochemical; conditions: for radical scavenging activity, ABTS assay: compound 1 mM in phosphate-buffered methanol, 734 nm; for IC50: concentration decreasing absorbance by 50%
Description: as §1, §2
Figure 2 Evaluation of the antioxidant properties of the OSe compounds employing the ABTS and DPPH assays. All measurements are mean ± SD. In the DPPH assay: absorbance was read after 0.5 h of mixing […] of DPPH with […] of OSe compounds (1 mM, MeOH) at 517 nm. In the ABTS assay: […] of each OSe compound (1 mM, phosphate-buffered methanol) was mixed with the ABTS solution (60 mM), and absorbance was monitored at 734 nm.
The antioxidant activity of the investigated compounds was assessed using 2,2’-az-ino-bis(3-ethylbenzothiazoline-6-sulphonic acid (ABTS) method. The radical cation derived from ABTS was prepared by the reaction of 60 mM ABTS solution with 0.3 M manganese dioxide solution in 0.1M phosphate buffer, pH 7. Then, the mixture was shaken, centrifuged, filtered, and the absorbance (Acontrol) of the resulting green-blue solu-tion (ABTS radical solution) was measured at wavelength 734 nm. Then, […] of 1 mg/ml test compound in phosphate-buffered methanol was added. The absorbance (Atest) was measured. The reduction in color intensity was expressed as % inhibition. The % inhibi-tion for each compound is calculated from the following equation
Inhibition% = (Acontrol-Asample)/(Acontrol)*100
Ascorbic acid (vitamin C) was used as a standard antioxidant (positive control). A blank sample was run without ABTS and using MeOH/phosphate buffer (1:1) instead of the sample. A negative control sample was run with MeOH/phosphate buffer (1:1) instead

Staphylococcus aureus = test: Agar diffusion assay, S. aureus; format: cell-based; set-up: S. aureus A% (activity index): concentration or dose not given beside the values; conditions: for zone of inhibition at 20 µM: Staphylococcus aureus, read-out: S. aureus IZD (mm); for S. aureus A% (activity index): zone of test compound / zone of standard (ampicillin) x 100
Experimental: The antimicrobial activities of the OSe compounds were evaluated against C. albicans yeast, as well as E. coli and S. bacteria, employing the agar well diffusion assay. Furthermore, the MICs (in µM) were determined by the microdilution method according to the reported protocol. More details are in the Supporting Information.
Compounds were evaluated for their antimicrobial activity against the Gram-negative bacteria Escherichia coli (E. coli) and the Gram-positive bacteria Staphylococcus aureus (S. aureus), as well as the Candida albicans (C. albicans) fungal strain, using the agar diffusion assay. Ampicillin and clotrimazole were used as standards. Indeed, the antimicrobial properties of the OSe compounds were also obtained from the activity index percentage (A%) according to Equation (2). (2) A%=Zone of inhibition by test compound diametre/Zone of inhibition by standard diametre×100 . […]
1.1.1. The antimicrobial activity
The antimicrobial activities of the OSe compounds were evaluated against C. albicans yeast as well as E. coli gram-negative and S. aureus gram-positive bacteria employing the agar well diffusion assay. Briefly, a concentration of 1 mM was prepared for each compound by dissolving in DMSO. Paper discs of standard size […] were steri-lized in an autoclave and soaked in 20 µL of the test compounds, and placed in the Petri dishes, which in turn contain a nutrient media (agar 20 g, peptone 5 g, and beef extract 3 g) seeded with the dedicated strain. Incubation lasted for 24 h at 36
Furthermore, the MICs (in µM) were determined by the microdilution method according to the reported protocol. […]
as §3

[3] = inhibition zone diameter, six-mm disks soaked with 20 μM of compound

Compound	radical scavenging activity, DPPH assay [1]	melting point	radical scavenging activity, ABTS assay [2]	zone of inhibition at 20 µM (Staphylococcus aureus; [3])	S. aureus A% (activity index) (Staphylococcus aureus)	IC50 [1]	IC50 [2]	S. aureus IZD (mm) (Staphylococcus aureus; [3])
O=C(C[Se]c1ccc(N2C(=O)CCC2=O)cc1)Nc1ccccc1 [Compound 14, 2-((4-(2,5-dioxopyrrolidin-1-yl)phenyl)selanyl)-N-phenylacetamide]	77%	159 to 161 °C	81%	14 mm	67%	–	–	–
2-((4-(2-(3-hydroxynaphthalen-1(4H)-ylidene)hydrazinyl)phenyl)selanyl)-N-phenylacetamide [Compound 9]	93%	–	88%	–	91%	20.64 ± 0.14 µM	28.87 ± 0.2 µM	19 mm
Nc1ccc([Se]CC(=O)Nc2ccccc2)cc1 [Compound 4, 2-((4-aminophenyl)selanyl)-N-phenylacetamide]	80%	121 to 122 °C	78%	15 mm	71%	–	–	–
CCOc1ccc(NC(=O)C[Se]c2ccc(N)cc2)cc1 [Compound 5, 2-((4-aminophenyl)selanyl)-N-(4-ethoxyphenyl)acetamide]	71%	136 to 137 °C	53%	12 mm	57%	–	–	–
Nc1ccc([Se]CC(=O)N[C@@H](Cc2c[nH]c3ccccc23)C(=O)O)cc1 [Compound 6, (2-((4-aminophenyl)selanyl)acetyl)tryptophan]	91%	154 to 156 °C	85%	18 mm	86%	24.03 ± 0.23 µM	31.92 ± 0.29 µM	–
C[Se]c1ccc(NC(=O)C=CC(=O)O)cc1 [Compound 15, 4-((4-(methylselanyl)phenyl)amino)-4-oxobut-2-enoic acid]	87%	171 °C	84%	15 mm	71%	–	–	–
O=C(O)CCC(=O)Nc1ccc([Se]CC(=O)Nc2ccccc2)cc1 [Compound 11, 4-oxo-4-((4-((2-oxo-2-(phenylamino)ethyl)selanyl)phenyl)amino)butanoic acid]	76%	163 to 165 °C	74%	13 mm	62%	–	–	–
C[Se]c1ccc(NC(=O)CCC(=O)O)cc1 [Compound 16, 4-((4-(methylselanyl)phenyl)amino)-4-oxobutanoic acid]	67%	169.6 °C	71%	–	43%	–	–	–
